# From patent US20150231236A1, “METHODS FOR TREATING PATIENTS WITH HYPERCHOLESTEROLEMIA THAT IS NOT ADEQUATELY CONTROLLED BY MODERATE-DOSE STATIN THERAPY” (Regeneron Pharmaceuticals, Inc., priority 2014, published 2015)
# How the values were obtained:
# [1] = test system: patients with hypercholesterolemia at high CV risk not adequately controlled with rosuvastatin (10 mg or 20 mg); assay: Example 3: randomized, double-blind trial, lipid efficacy of mAb316P add-on to rosuvastatin vs EZE add-on or rosuvastatin dose doubling; assay type: in vivo, human; conditions: for Proportion of Patients Reaching LDL-C goal (%) / LDL-C W24 % change from baseline, LS mean (SE): week 24; for Proportion of Patients Reaching LDL-C goal (%): LDL-C <70 mg/dL very high risk or <100 mg/dL high risk; for LDL-C W24 % change from baseline, LS mean (SE): ITT population, treatment arm as labelled
# Protocol: The present study was a randomized, double-blind, active-comparator, parallel-group study in patients at high CV risk with non-FH or heFH who are not adequately controlled with rosuvastatin (10 mg or 20 mg) with or without other lipid-modifying therapy (LMT) (excluding EZE). The study design is illustrated in FIG. 2. Patients who entered the study were taking either rosuvastatin 10 mg or rosuvastatin 20 mg. The former patients were randomized to 1 of 3 treatment arms (arms 1 to 3); the latter patients were randomized to 1 of 3 treatment arms (arms 4 to 6). The treatment arms are as follows:
# (B) a double-blind treatment period of 24 weeks. […] The patient/caregiver administered subsequent injections outside of the clinic according to the dosing schedule. […] The last dose of daily oral study drugs was administered at week 24.
# The first injection of study drug was administered at the clinical site, as soon as possible after the patient was randomized into the study. The patient was monitored at the clinical site for at least 30 minutes following the first injection. The patient/caregiver administered subsequent injections outside of the clinic, according to the dosing schedule.
# (§1) The primary efficacy endpoint was the percent change in calculated LDL-C from baseline to week 24, which is defined as: 100× (calculated LDL-C value at week 24−calculated LDL-C value at baseline)/calculated LDL-C value at baseline. The baseline calculated LDL-C value was the last LDL-C level obtained before the first double-blind study drug injection. The calculated LDL-C at week 24 was the LDL-C level obtained within the week 24 analysis window and during the main efficacy period. The main efficacy period is defined as the time from the first double-blind study drug injection up to 21 days after the last double-blind study drug injection or up to the upper limit of the week 24 analysis window, whichever comes first.
# Total-C, HDL-C, TG, ApoB, ApoA-1, and Lp(a) were directly measured by a central laboratory. LDL-C was calculated using the Friedewald formula. […] Non-HDL-C was calculated by subtracting HDL-C from the total-C. Ratio ApoB/ApoA-1 was calculated.
# For clarification, the ITT analysis is defined for patients in the ITT population and includes all endpoint assessments in an analysis window, regardless of study treatment dosing status (i.e. includes post-treatment assessments). The on-treatment analysis is defined for patients in the mITT population and includes all endpoint assessments from the first double-blind study drug (capsule or injection, whichever comes first) up to 21 days after the last double-blind study drug injection or 3 days after the last capsule intake, whichever comes first (i.e. includes assessments in the efficacy treatment period).
# [2] = test system: patients with hypercholesterolemia at high CV risk not adequately controlled with atorvastatin (20 mg or 40 mg); assay: Example 2: safety, treatment-emergent adverse events in pooled treatment groups; conditions: Safety Population, pooled treatment groups
# Protocol: For the pooled data, three treatment groups are formed by combining treatment arms regardless of the atorvastatin doses as follows:
# (2) EZE treatment group: pooling EZE+atorva 20 mg arm and EZE+atorva 40 mg arm;
# [3] = test system: patients with hypercholesterolemia at high CV risk not adequately controlled with rosuvastatin (10 mg or 20 mg); assay: Example 3: safety, treatment-emergent adverse events in pooled treatment groups; conditions: Safety Population; pooled treatment groups
# [4] = test system: patients with hypercholesterolemia at high CV risk not adequately controlled with atorvastatin (20 mg or 40 mg); assay: Example 2: randomized, double-blind trial, lipid efficacy of mAb316P add-on to atorvastatin vs EZE add-on, atorvastatin dose doubling or switch to rosuvastatin; assay type: in vivo, human; conditions: for reduced LDL-C levels by: week 24, add-on mAb316P
# Protocol: The present study was a randomized, double-blind, active-comparator, parallel-group study in patients at high CV risk with non-FH or heFH who are not adequately controlled with atorvastatin (20 mg or 40 mg) with or without other lipid-modifying therapy (LMT) (excluding EZE). The study design is illustrated in FIG. 1. Patients who entered the study were taking either atorvastatin 20 mg or atorvastatin 40 mg. The former patients were randomized to 1 of 3 treatment arms (arms 1 to 3); the latter patients were randomized to 1 of 4 treatment arms (arms 4 to 7). The treatment arms are as follows:
# (1) mAb316P+atorvastatin 20 mg+placebo-EZE; (2) Placebo-mAb316P+atorvastatin 40 mg+placebo-EZE; and (3) Placebo-mAb316P+atorvastatin 20 mg+EZE 10 mg.
# (4) mAb316P+atorvastatin 40 mg+placebo-EZE; (5) Placebo-mAb316P+atorvastatin 80 mg+placebo-EZE; (6). Placebo-mAb316P+rosuvastatin 40 mg+placebo-EZE; and (7) Placebo-mAb316P+atorvastatin 40 mg+EZE 10 mg.
# (B) a double-blind treatment period of 24 weeks. Each patient received a SC injection Q2W (mAb316P or placebo-mAb316P) and was administered (or instructed to take) 2 oral blinded medications daily (a statin [atorvastatin or rosuvastatin] and EZE or placebo-EZE). The first injection of mAb316P or placebo-mAb316P was administered at the clinical site on day 1, after study assessments were completed, and as soon as possible after the patient was randomized into the study. The patient/caregiver administered subsequent injections outside of the clinic according to the dosing schedule. On days where the clinic study visit coincided with dosing, the dose of study drugs (injectable and oral) were administered after all study assessments had been performed and all laboratory samples collected. The last dose of mAb316P or placebo-mAb316P was administered at week 22. The last dose of daily oral study drugs was administered at week 24. At week 12, based on their baseline CV risk, certain patients randomized to mAb316P in a blinded manner, had their dose increased as follows:
# Each patient received a subcutaneous (SC) injection once every two weeks (Q2W) (mAb316P or placebo-mAb316P) and took 2 oral blinded medications daily (a statin [atorvastatin or rosuvastatin] and EZE or placebo-EZE).
# The injectable study treatment was a single SC injection of 1 mL for a 75 mg or 150 mg dose of mAb316P or placebo-mAb316P provided in an auto-injector, administered in the abdomen, thigh, or outer area of the upper arm. The first injection of study drug was administered at the clinical site, as soon as possible after the patient was randomized into the study. The patient was monitored at the clinical site for at least 30 minutes following the first injection. The patient/caregiver administered subsequent injections outside of the clinic, according to the dosing schedule. On days where the clinic study visit coincided with dosing, the dose of study drug was administered after all study assessments have been performed and all laboratory samples collected.
# The dose of mAb316P was increased, in a blinded manner, from 75 mg to 150 mg SC Q2W, starting at week 12, based on baseline CV risk in the following circumstances:
# as §1, with “24 will be” for “24 was”, “period was” for “period is”
# Total-C, HDL-C, TG, ApoB, ApoA-1, and Lp (a) were directly measured by a central laboratory. […]
# [5] = Week 4, baseline rosuvastatin 20 mg
# [6] = Week 8, baseline rosuvastatin 20 mg
# [7] = Week 12, baseline rosuvastatin 20 mg
# [8] = Week 16, baseline rosuvastatin 20 mg
# [9] = Week 24, baseline rosuvastatin 20 mg
# [10] = Week 4, baseline rosuvastatin 10 mg
# [11] = Week 8, baseline rosuvastatin 10 mg
# [12] = Week 12, baseline rosuvastatin 10 mg
# [13] = Week 16, baseline rosuvastatin 10 mg
# [14] = Week 24, baseline rosuvastatin 10 mg
compound,measurement,setting,value
mAb316P + RSV 20: treatment arm: mAb316P 75/150 mg Q2W + rosuvastatin 20 mg daily,Proportion of Patients Reaching LDL-C goal (%),[1]; Baseline Rosuvastatin 20 mg,66.7%
same,Calculated LDL-C LS mean (SE) Value,"[1]; Baseline, baseline rosuvastatin 20 mg",118.1 (4.5) mg/dL
same,"LDL-C W24 % change from baseline, LS mean (SE)",[1],−36.3%
same,Calculated LDL-C LS mean (SE) Value,[1]; [5],69.9 (3.4) mg/dL
same,"Calculated LDL-C LS mean (SE), % Change from Baseline",[1]; [5],−39.6 (5.2) %
same,"Calculated LDL-C LS mean (SE), Change from Baseline",[1]; [5],−47.1 (3.4)
same,Calculated LDL-C LS mean (SE) Value,[1]; [6],67.4 (4.3) mg/dL
same,"Calculated LDL-C LS mean (SE), % Change from Baseline",[1]; [6],−40.6 (5.7) %
same,"Calculated LDL-C LS mean (SE), Change from Baseline",[1]; [6],−49.6 (4.3)
same,Calculated LDL-C LS mean (SE) Value,[1]; [7],76.1 (4.2) mg/dL
same,"Calculated LDL-C LS mean (SE), % Change from Baseline",[1]; [7],−32.3 (5.2) %
same,"Calculated LDL-C LS mean (SE), Change from Baseline",[1]; [7],−41.0 (4.2)
same,Calculated LDL-C LS mean (SE) Value,[1]; [8],64.5 (4.8) mg/dL
same,"Calculated LDL-C LS mean (SE), % Change from Baseline",[1]; [8],−44.8 (6.2) %
same,"Calculated LDL-C LS mean (SE), Change from Baseline",[1]; [8],−52.6 (4.8)
same,Calculated LDL-C LS mean (SE) Value,[1]; [9],73.5 (5.8) mg/dL
same,"Calculated LDL-C LS mean (SE), % Change from Baseline",[1]; [9],−36.3 (7.1) %
same,"Calculated LDL-C LS mean (SE), Change from Baseline",[1]; [9],−43.5 (5.8)
mAb316P + RSV 10: treatment arm: mAb316P 75/150 mg Q2W + rosuvastatin 10 mg daily,Proportion of Patients Reaching LDL-C goal (%),[1]; Baseline Rosuvastatin 10 mg,84.9%
same,Calculated LDL-C LS mean (SE) Value,"[1]; Baseline, baseline rosuvastatin 10 mg",107.8 (3.8) mg/dL
same,"LDL-C W24 % change from baseline, LS mean (SE)",[1],−50.6%
same,Calculated LDL-C LS mean (SE) Value,[1]; [10],49.9 (3.6) mg/dL
same,"Calculated LDL-C LS mean (SE), % Change from Baseline",[1]; [10],−53.1 (3.2) %
same,"Calculated LDL-C LS mean (SE), Change from Baseline",[1]; [10],−55.3 (3.6)
same,Calculated LDL-C LS mean (SE) Value,[1]; [11],49.4 (4.3) mg/dL
same,"Calculated LDL-C LS mean (SE), % Change from Baseline",[1]; [11],−53.8 (3.8) %
same,"Calculated LDL-C LS mean (SE), Change from Baseline",[1]; [11],−55.9 (4.3)
same,Calculated LDL-C LS mean (SE) Value,[1]; [12],53.9 (4.1) mg/dL
same,"Calculated LDL-C LS mean (SE), % Change from Baseline",[1]; [12],−49.6 (4.1) %
same,"Calculated LDL-C LS mean (SE), Change from Baseline",[1]; [12],−51.3 (4.1)
same,Calculated LDL-C LS mean (SE) Value,[1]; [13],49.2 (4.7) mg/dL
same,"Calculated LDL-C LS mean (SE), % Change from Baseline",[1]; [13],−54.1 (4.7) %
same,"Calculated LDL-C LS mean (SE), Change from Baseline",[1]; [13],−56.1 (4.7)
same,Calculated LDL-C LS mean (SE) Value,[1]; [14],53.0 (4.3) mg/dL
same,"Calculated LDL-C LS mean (SE), % Change from Baseline",[1]; [14],−50.6 (4.2) %
same,"Calculated LDL-C LS mean (SE), Change from Baseline",[1]; [14],−52.2 (4.3)
"O=C1[C@H](CC[C@H](O)c2ccc(F)cc2)[C@@H](c2ccc(O)cc2)N1c1ccc(F)cc1 [EZE, ezetimibe, reference compound]",Proportion of Patients Reaching LDL-C goal (%),[1]; Baseline Rosuvastatin 10 mg,57.2%
same,Proportion of Patients Reaching LDL-C goal (%),[1]; Baseline Rosuvastatin 20 mg,52.2%
same,proportion of patients who reached LDL-C level of <70 mg/dL (1.81 mmol/L) at Week 24,[1]; baseline rosuvastatin 10 mg regimen,43.1%
same,proportion of patients who reached LDL-C level of <70 mg/dL (1.81 mmol/L) at Week 24,[1]; baseline rosuvastatin 20 mg regimen,43.6%
same,General Allergic TEAEs (SMQ Hypersensitivity),[2],5 (5.0%) patients (%)
same,"SOC Injury, poisoning and procedural complications",[2],12 (11.9%) patients (%)
same,SOC Musculoskeletal and connective tissue disorders,[2],13 (12.9%) patients (%)
same,"SOC Neoplasms benign, malignant and unspecified (incl cysts and polyps)",[2],0 patients (%)
same,SOC Nervous system disorders,[2],6 (5.9%) patients (%)
same,TEAEs,[2],65 (64.4%) patients (%)
same,Treatment-emergent SAEs,[2],7 (6.9%) patients (%)
same,Treatment-emergent injection site reactions (ISRs),[2],3 (3.0%) patients (%)
same,Treatment-emergent neurologic disorders,[2],1 (1.0%) patients (%)
same,discontinued study treatment early due to a treatment emergent adverse event (TEAE),[2],4 (4.0%) patients (%)
same,patient deaths,[2],Two
same,Treatment-emergent cardiovascular events adjudicated positively,[2]; ischemia driven coronary revascularization procedure,1 (1.0%) patients (%)
same,General Allergic TEAEs,[3],2 (2.0%) patients (%)
same,SOC General disorders and administration site conditions,[3],8 (7.9%) patients (%)
same,SOC Psychiatric disorders,[3],4 (4.0%) patients (%)
same,"SOC Respiratory, thoracic and mediastinal disorders",[3],2 (2.0%) patients (%)
same,SOC Skin and subcutaneous tissue disorders,[3],5 (5.0%) patients (%)
same,TEAEs,[3],54 (53.5%) patients (%)
same,Treatment-emergent SAEs,[3],8 (7.9%) patients (%)
same,Treatment-emergent cardiovascular events adjudicated positively,[3],1 (1.0%) patients (%)
same,Treatment-emergent neurocognitive disorders,[3],1 (1.0%) patients (%)
same,Treatment-emergent neurologic disorders,[3],3 (3.0%) patients (%)
same,cough,[3],0 patients (%)
same,discontinued study treatment early due to a treatment emergent adverse event,[3],8 (7.9%) patients (%)
same,injection site reactions (ISRs),[3],0 patients (%)
same,LDL-C reductions observed,"[4]; across atorvastatin 20 mg and 40 mg regimens, ezetimibe add-on groups, atorvastatin dose increase groups",20.5-22.6%
same,reduced LDL-C levels by,"[4]; atorvastatin 20 mg regimen, add-on ezetimibe or doubling of atorvastatin dose",20.5%
same,reduced LDL-C levels by,"[4]; atorvastatin 40 mg regimen, add-on ezetimibe, doubling of atorvastatin dose or switch to rosuvastatin 40 mg",22.6%
